The source of these data is patent US8134007B2, “Pyridine derivatives” (Pfizer Inc., priority 2007, dated 2012).

pIC50: −log10 of the molar value. Some results are limits rather than exact numbers.

Holding throughout (type): cell-based
One test has as its target T1, Human Nav1.8 (Homo sapiens, UniProt Q9Y5Y9).
T1 construct: expressed in transfected cells; host or cells: HEK293
As to the kind of experiment: VIPR Assay for Nav1.8 Compounds (FRET membrane potential, deltamethrin opener). Particulars: VIPR FRET membrane potential assay, deltamethrin opener; average of replicates; read-out: Nav1.8 IC50.

Test [1] deals with tetrodotoxin-sensitive voltage-gated sodium channels including NaV1.2, NaV1.3 and NaV1.7. Briefly: TTX-S Assay (VIPR, SHSY-5Y cell line, veratridine opener). The note with it: read-out: TTX-S IC50, veratridine 50 μM opener, average of replicates.
The target in the next test is T2, Human Nav1.5 (Homo sapiens, UniProt Q14524).
T2 construct: expressed in transfected cells; host or cells: HEK293
T2 sequence (Q14524 whole entry): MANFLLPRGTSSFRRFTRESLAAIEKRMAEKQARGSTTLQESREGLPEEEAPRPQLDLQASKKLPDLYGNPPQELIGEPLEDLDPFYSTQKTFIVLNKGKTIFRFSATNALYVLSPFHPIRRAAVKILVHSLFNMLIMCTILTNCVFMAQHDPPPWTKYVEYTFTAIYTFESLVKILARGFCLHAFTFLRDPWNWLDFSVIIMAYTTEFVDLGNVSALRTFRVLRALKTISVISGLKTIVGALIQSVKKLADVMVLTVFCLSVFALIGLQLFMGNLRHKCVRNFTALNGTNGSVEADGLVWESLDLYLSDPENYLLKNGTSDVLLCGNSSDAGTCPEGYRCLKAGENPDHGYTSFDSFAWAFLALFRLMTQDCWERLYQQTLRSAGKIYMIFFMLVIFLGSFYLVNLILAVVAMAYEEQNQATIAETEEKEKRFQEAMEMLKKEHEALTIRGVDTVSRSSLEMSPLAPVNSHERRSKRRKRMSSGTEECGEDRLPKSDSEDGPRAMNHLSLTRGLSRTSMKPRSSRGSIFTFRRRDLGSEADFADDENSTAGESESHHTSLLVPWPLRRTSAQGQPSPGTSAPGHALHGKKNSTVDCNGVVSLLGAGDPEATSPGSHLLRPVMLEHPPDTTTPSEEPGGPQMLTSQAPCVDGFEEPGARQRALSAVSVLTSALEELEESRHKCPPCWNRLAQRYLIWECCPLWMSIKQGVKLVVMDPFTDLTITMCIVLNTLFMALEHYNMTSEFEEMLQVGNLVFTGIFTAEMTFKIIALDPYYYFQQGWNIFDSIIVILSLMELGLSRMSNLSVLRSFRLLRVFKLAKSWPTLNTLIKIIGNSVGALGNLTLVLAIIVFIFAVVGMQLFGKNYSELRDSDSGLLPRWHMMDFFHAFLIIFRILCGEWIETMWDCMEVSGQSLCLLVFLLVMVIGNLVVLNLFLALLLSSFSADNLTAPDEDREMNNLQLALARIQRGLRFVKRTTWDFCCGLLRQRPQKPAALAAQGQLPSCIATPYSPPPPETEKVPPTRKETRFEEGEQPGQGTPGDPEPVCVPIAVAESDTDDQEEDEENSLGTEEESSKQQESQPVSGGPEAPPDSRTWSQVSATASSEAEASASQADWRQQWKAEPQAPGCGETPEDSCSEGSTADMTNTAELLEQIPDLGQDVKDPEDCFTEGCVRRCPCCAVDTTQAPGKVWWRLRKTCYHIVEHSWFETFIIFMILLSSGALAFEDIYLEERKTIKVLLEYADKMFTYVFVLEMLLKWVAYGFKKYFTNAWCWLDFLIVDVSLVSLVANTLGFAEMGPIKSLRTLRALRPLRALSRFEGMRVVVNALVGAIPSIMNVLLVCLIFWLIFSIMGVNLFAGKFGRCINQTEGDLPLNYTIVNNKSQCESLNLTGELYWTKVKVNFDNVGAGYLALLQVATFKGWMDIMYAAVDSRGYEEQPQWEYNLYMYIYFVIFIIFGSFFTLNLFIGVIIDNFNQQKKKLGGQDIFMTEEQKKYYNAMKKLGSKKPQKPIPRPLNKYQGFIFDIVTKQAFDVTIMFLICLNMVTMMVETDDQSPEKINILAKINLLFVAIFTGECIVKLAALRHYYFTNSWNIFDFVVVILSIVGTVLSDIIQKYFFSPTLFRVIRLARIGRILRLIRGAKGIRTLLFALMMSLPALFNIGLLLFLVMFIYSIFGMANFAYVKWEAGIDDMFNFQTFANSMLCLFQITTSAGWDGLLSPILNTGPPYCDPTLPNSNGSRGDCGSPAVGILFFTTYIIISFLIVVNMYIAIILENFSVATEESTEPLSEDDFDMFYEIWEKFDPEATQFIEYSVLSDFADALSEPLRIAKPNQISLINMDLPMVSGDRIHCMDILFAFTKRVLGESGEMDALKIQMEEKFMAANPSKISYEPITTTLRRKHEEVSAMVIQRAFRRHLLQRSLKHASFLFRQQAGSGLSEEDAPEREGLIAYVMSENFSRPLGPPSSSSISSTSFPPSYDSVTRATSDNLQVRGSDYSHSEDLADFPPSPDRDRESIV
As to the kind of experiment: Nav1.5 Assay (VIPR, HEK293 cells). The note with it: HEK293 cells expressing Human Nav1.5; average of replicates; read-out: Nav1.5 IC50. The method, then:
The Nav1.5 assay is performed in HEK293 cells expressing Human Nav1.5 in the same way as the Nav1.8 assay.
Where replicate experiments were conducted resulting in multiple sets of data for a test compound, the data presented represent the average value from all replicate experiments.

T1 sequence (Q9Y5Y9 whole entry): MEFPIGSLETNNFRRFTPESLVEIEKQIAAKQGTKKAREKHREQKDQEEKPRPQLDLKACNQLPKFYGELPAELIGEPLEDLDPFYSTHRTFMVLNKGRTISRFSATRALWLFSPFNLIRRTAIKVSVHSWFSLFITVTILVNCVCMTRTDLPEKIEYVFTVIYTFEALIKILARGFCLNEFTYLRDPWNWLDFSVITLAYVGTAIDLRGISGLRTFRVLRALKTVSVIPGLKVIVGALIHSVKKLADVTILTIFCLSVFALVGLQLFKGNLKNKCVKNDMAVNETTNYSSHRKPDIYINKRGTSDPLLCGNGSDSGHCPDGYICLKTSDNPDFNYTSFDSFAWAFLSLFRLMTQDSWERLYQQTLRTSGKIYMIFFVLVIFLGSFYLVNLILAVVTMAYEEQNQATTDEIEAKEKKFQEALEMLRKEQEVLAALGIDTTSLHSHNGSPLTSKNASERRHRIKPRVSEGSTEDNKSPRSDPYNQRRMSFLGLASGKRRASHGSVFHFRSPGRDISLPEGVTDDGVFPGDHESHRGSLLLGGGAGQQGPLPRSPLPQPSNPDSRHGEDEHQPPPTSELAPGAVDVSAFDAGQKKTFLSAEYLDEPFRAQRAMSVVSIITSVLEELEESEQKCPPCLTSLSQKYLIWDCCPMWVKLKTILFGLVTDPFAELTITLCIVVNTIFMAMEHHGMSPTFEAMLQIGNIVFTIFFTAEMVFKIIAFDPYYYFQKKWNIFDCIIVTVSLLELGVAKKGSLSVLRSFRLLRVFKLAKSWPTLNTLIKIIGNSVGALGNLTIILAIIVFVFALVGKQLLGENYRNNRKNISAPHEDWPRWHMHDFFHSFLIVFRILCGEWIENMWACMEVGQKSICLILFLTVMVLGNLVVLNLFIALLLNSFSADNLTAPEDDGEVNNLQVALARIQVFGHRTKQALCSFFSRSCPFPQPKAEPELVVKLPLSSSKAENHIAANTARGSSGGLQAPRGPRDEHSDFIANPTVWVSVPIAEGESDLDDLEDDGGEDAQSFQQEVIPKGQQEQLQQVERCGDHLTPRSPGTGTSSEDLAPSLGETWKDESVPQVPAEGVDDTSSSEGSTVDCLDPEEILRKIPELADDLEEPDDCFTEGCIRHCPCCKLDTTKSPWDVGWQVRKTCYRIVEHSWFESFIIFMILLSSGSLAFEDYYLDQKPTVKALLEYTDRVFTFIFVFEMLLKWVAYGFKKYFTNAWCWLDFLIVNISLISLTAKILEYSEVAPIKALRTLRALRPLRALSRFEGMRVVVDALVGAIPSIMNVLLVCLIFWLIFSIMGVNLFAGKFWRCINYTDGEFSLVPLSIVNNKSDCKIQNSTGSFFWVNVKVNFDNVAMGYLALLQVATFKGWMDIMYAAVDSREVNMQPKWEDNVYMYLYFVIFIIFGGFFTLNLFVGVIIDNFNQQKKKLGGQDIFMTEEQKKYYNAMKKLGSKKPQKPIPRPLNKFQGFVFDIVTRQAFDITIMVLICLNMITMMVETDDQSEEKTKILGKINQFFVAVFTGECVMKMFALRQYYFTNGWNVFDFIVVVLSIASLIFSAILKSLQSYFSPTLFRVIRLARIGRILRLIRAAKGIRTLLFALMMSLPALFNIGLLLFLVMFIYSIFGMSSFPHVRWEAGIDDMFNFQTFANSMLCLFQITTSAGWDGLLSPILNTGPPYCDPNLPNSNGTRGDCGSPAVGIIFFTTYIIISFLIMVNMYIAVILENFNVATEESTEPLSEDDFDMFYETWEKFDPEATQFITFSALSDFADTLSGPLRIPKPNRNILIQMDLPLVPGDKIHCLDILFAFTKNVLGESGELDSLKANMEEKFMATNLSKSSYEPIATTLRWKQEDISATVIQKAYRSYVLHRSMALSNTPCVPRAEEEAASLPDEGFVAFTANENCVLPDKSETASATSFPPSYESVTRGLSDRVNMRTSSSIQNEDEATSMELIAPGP

A word on the pIC50: it is −log10 of the IC50, conventionally taken in molar units. `Cn1nccc1C(=O)Nc1ccc(-c2cc(F)ccc2OC(F)(F)F)c(N)n1` [Example 116]: the values for the pIC50 (at Human Nav1.8; in test [1]; at Human Nav1.5) were 5.64, 4.59 and 4.55, respectively.
In the same order, the values of `CCn1nccc1C(=O)Nc1ccc(-c2cc(Cl)ccc2Cl)c(N)n1` [Example 56, N-[6-Amino-5-(2,5-dichlorophenyl)pyridin-2-yl]-1-ethyl-1H-pyrazole-5-carboxamide] are 5.62, 5.09 and 4.77.
Taken in the same sequence, the figures for `N#Cc1cccc(C(=O)Nc2ccc(-c3ccccc3OC(F)(F)F)c(N)n2)c1` [Example 106, N-{6-Amino-5-[2-(trifluoromethoxy)phenyl]pyridin-2-yl}-3-cyanobenzamide] were 5.28, 5.09 and 4.80.
In the same order, the values of `CCn1nccc1C(=O)Nc1ccc(-c2cc(Cl)cc(OC)c2Cl)c(N)n1` [Example 62, N-[6-Amino-5-(2,5-dichloro-3-methoxyphenyl)pyridin-2-yl]-1-ethyl-1H-pyrazole-5-carboxamide] are 5.29, 4.96 and 4.77.
For the compound `Cn1nccc1C(=O)Nc1ccc(-c2cccc(Cl)c2Cl)c(N)n1` [Example 9, N-[6-Amino-5-(2,3-dichlorophenyl)pyridin-2-yl]-1-methyl-1H-pyrazole-5-carboxamide], the values for the pIC50 (at Human Nav1.8; in test [1]; at Human Nav1.5) were 5.38, less than 4.49 and 4.57, respectively.
On to `N#Cc1ccccc1C(=O)Nc1ccc(-c2ccccc2OC(F)(F)F)c(N)n1` [Example 107, N-{6-Amino-5-[2-(trifluoromethoxy)phenyl]pyridin-2-yl}-2-cyanobenzamide], for which the pIC50 was 5.60 on Human Nav1.8, 5.51 in test [1] and 5.60 on Human Nav1.5.
As to `COc1ccc(Cl)c(-c2ccc(NC(=O)c3conc3C(F)(F)F)nc2N)c1` [Example 113], the figures for the pIC50 (at Human Nav1.8; in test [1]; on Human Nav1.5) were 5.42, 5.06 and 4.85, respectively.
In the same order, the values of `Cn1nccc1C(=O)Nc1ccc(-c2ccc(OCC(F)(F)F)cc2)c(N)n1` [Example 122] are 4.72, 4.92 and 4.85.
As for `CCn1nccc1C(=O)Nc1ccc(-c2ccccc2C(F)(F)F)c(N)n1` [Example 60, N-{6-Amino-5-[2-(trifluoromethyl)phenyl]pyridin-2-yl}-1-ethyl-1H-pyrazole-5-carboxamide], the figures for the pIC50 (on Human Nav1.8; in test [1]; on Human Nav1.5) were 5.37, less than 4.49 and 4.70, respectively.
In the same order, the values of `CCn1nccc1C(=O)Nc1ccc(-c2cc(F)ccc2Cl)c(N)n1` [Example 54, N-[6-Amino-5-(2-chloro-5-fluorophenyl)pyridin-2-yl]-1-ethyl-1H-pyrazole-5-carboxamide] are 5.92, 4.74 and 4.70.
In the case of `CCn1nccc1C(=O)Nc1ccc(-c2cccc(F)c2Cl)c(N)n1` [Example 58, N-[6-Amino-5-(2-chloro-3-fluorophenyl)pyridin-2-yl]-1-ethyl-1H-pyrazole-5-carboxamide], the pIC50 was 5.03 at Human Nav1.8, 4.77 in test [1] and 4.51 on Human Nav1.5.
In the same order, the values of `Cc1nocc1C(=O)Nc1ccc(-c2ccccc2OC(F)F)c(N)n1` [Example 38, N-{6-Amino-5-[2-(difluoromethoxy)phenyl]pyridin-2-yl}-3-methylisoxazole-4-carboxamide] are 5.59, 4.59 and 4.60.
For `Cc1oncc1C(=O)Nc1ccc(-c2ccccc2OC(F)(F)F)c(N)n1` [Example 23, N-{6-Amino-5-[2-(trifluoromethoxy)phenyl]pyridin-2-yl}-5-methylisoxazole-4-carboxamide], the pIC50 is 5.80 at Human Nav1.8, 5.03 in test [1] and 4.77 on Human Nav1.5.
`CCn1nccc1C(=O)Nc1ccc(-c2cc(F)ccc2C(F)(F)F)c(N)n1` [Example 57, N-{6-Amino-5-[5-fluoro-2-(trifluoromethyl)phenyl]pyridin-2-yl}-1-ethyl-1H-pyrazole-5-carboxamide]: the pIC50 on Human Nav1.8 is 5.43; in test [1], 4.68; on Human Nav1.5, less than 4.49.
Taken in the same sequence, the figures for `Cc1nocc1C(=O)Nc1ccc(-c2cccc(C(F)(F)F)c2Cl)c(N)n1` [Example 124] were 4.96, 5.07 and 4.92.
Taken in the same sequence, the figures for `Cc1nocc1C(=O)Nc1ccc(-c2cc(F)ccc2C(F)(F)F)c(N)n1` [Example 39, N-{6-Amino-5-[5-fluoro-2-(trifluoromethyl)phenyl]pyridin-2-yl}-3-methylisoxazole-4-carboxamide] were 6.03, 4.89 and 4.68.
Taken in the same sequence, the figures for `CC(C)n1nccc1C(=O)Nc1ccc(-c2cc(F)ccc2Cl)c(N)n1` [Example 67, N-[6-Amino-5-(2-chloro-5-fluorophenyl)pyridin-2-yl]-1-isopropyl-1H-pyrazole-5-carboxamide] were 5.30, 4.66 and 4.51.
For the compound `CCn1nccc1C(=O)Nc1ccc(-c2cc(Cl)ccc2OC(F)(F)F)c(N)n1` [Example 63, N-{6-Amino-5-[5-chloro-2-(trifluoromethoxy)phenyl]pyridin-2-yl}-1-ethyl-1H-pyrazole-5-carboxamide], the pIC50 on Human Nav1.8 is 5.37; in test [1] it was 5.36; on Human Nav1.5, 4.80.
Taken in the same sequence, the figures for `Cn1ccc(C(=O)Nc2ccc(-c3cc(Cl)cc(Cl)c3Cl)c(N)n2)n1` [Example 70, N-[6-Amino-5-(2,3,5-trichlorophenyl)pyridin-2-yl]-1-methyl-1H-pyrazole-3-carboxamide] were 4.96, 4.85 and 4.55.
Regarding `Cn1nccc1C(=O)Nc1ccc(-c2cc(OC(F)(F)F)ccc2F)c(N)n1` [Example 17, N-{6-Amino-5-[2-fluoro-5-(trifluoromethoxy)phenyl]pyridin-2-yl}-1-methyl-1H-pyrazole-5-carboxamide], the negative logarithm of the IC50 (pIC50) on Human Nav1.8 was 5.47; in test [1], 5.11; on Human Nav1.5, 4.72.
In the case of `Cn1nccc1C(=O)Nc1ccc(-c2ccccc2OC(F)F)c(N)n1` [Example 19, N-{6-Amino-5-[2-(difluoromethoxy)phenyl]pyridin-2-yl}-1-methyl-1H-pyrazole-5-carboxamide], the pIC50 at Human Nav1.8 is 4.85; in test [1], 4.60; at Human Nav1.5, less than 4.49.
`Cc1nocc1C(=O)Nc1ccc(-c2cc(Cl)ccc2OC(F)(F)F)c(N)n1` [Example 32, N-{6-Amino-5-[5-chloro-2-(trifluoromethoxy)phenyl]pyridin-2-yl}-3-methylisoxazole-4-carboxamide]: the pIC50 was 6.19 on Human Nav1.8, 5.59 in test [1] and 5.11 on Human Nav1.5.
`COCc1nocc1C(=O)Nc1ccc(-c2ccccc2OC(F)(F)F)c(N)n1` [Example 88, N-{6-Amino-5-[2-(trifluoromethoxy)phenyl]pyridin-2-yl}-3-(methoxymethyl)isoxazole-4-carboxamide]: the pIC50 on Human Nav1.8 was 5.82; in test [1] it was 5.14; at Human Nav1.5 it was 5.01.
For the compound `Cc1nonc1C(=O)Nc1ccc(-c2ccccc2OC(F)(F)F)c(N)n1` [Example 50, N-{6-Amino-5-[2-(trifluoromethoxy)phenyl]pyridin-2-yl}-4-methyl-1,2,5-oxadiazole-3-carboxamide], the pIC50 at Human Nav1.8 is 5.51; in test [1], 5.01; on Human Nav1.5, 4.72.
Taken in the same sequence, the figures for `Cc1n[nH]cc1C(=O)Nc1ccc(-c2ccccc2OC(F)(F)F)c(N)n1` [Example 108, N-{6-Amino-5-[2-(trifluoromethoxy)phenyl]pyridin-2-yl}-3-methyl-1H-pyrazole-4-carboxamide] were 4.59, 4.57 and less than 4.49.
Taken in the same sequence, the figures for `Cn1nncc1C(=O)Nc1ccc(-c2cc(Cl)cc(Cl)c2Cl)c(N)n1` [Example 84, N-[6-Amino-5-(2,3,5-trichlorophenyl)pyridin-2-yl]-1-methyl-1H-1,2,3-triazole-5-carboxamide] were 5.62, 5.19 and 5.28.
Taken in the same sequence, the figures for `Nc1nc(NC(=O)c2ccccc2)ccc1-c1ccccc1OC(F)(F)F` [Example 99] were 5.49, 5.18 and 4.82.
Turning to `COCc1nocc1C(=O)Nc1ccc(-c2cc(F)ccc2Cl)c(N)n1` [Example 90, N-[6-Amino-5-(2-chloro-5-fluorophenyl)pyridin-2-yl]-3-(methoxymethyl)isoxazole-4-carboxamide], the figures for the pIC50 (on Human Nav1.8; in test [1]; at Human Nav1.5) were 6.26, less than 4.49 and less than 4.49, respectively.
For the compound `Cc1nocc1C(=O)Nc1ccc(-c2cccc3c2OCCO3)c(N)n1` [Example 35, N-[6-Amino-5-(2,3-dihydro-1,4-benzodioxin-5-yl)pyridin-2-yl]-3-methylisoxazole-4-carboxamide], the pIC50 is 4.96 on Human Nav1.8, less than 4.49 in test [1] and less than 4.49 on Human Nav1.5.
Consider `COc1cc(Cl)cc(-c2ccc(NC(=O)c3cnnn3C)nc2N)c1Cl` [Example 87, N-[6-Amino-5-(2,5-dichloro-3-methoxyphenyl)pyridin-2-yl]-1-methyl-1H-1,2,3-triazole-5-carboxamide], for which the pIC50 at Human Nav1.8 is 5.21; in test [1] it was 4.82; on Human Nav1.5, 5.00.
For the compound `Cc1nocc1C(=O)Nc1ccc(-c2cc(F)ccc2OC(F)(F)F)c(N)n1` [Example 115], the pIC50 on Human Nav1.8 was 6.55; in test [1], 5.28; at Human Nav1.5, 5.10.
